{
  "source": "patent US12723029B2",
  "about": "“Mitochondrial ATP inhibitors targeting the gamma subunit prevent metastasis” (LUNELLA BIOTECH, INC., priority 2020, dated 2026)",
  "key": {"MDA-MB-231 cells [1]": {"tested_on": "MDA-MB-231 cells", "assay": "Live cell/dead cell analysis by FACS", "format": "cell-based, human", "conditions": "1 and 10 μM", "experimental": "FIGS. 10D-10F show the results of live cell/dead cell analysis. MDA-MB-231 cells were treated with Bedaquiline (1 and 10 μM) or vehicle alone, for 48, 72 and 120 hours, and then subjected to live/dead analysis by FACS. […] However, at 72 and 120 hours (FIGS. 10E and 10F), a decrease in the live cell population and an increase in the dead cell population can be seen. […] Two-way ANOVA, Sidak's multiple comparisons test, ns=not significant, *p<0.01, **p<0.001, ***p<0.0005."}, "MDA-MB-231 cells [2]": {"tested_on": "MDA-MB-231 cells", "assay": "Cell migration assay (Transwells)", "format": "cell-based, human", "conditions": "10 μM, 32 hours then 16 hours in Transwells", "experimental": "MDA-MB-231 cells were cultured in presence of Bedaquiline (10 μM) for 32 hours and moved to the Transwells for 16 hours in presence of Bedaquiline (10 μM). Unpaired t-test, **p<0.005.\nCell Migration Assays: Briefly, 3.5×10^4 cells in 0.5 ml of serum-free DMEM with 0.1% BSA were added to the wells of 8-μm pore, non-coated membrane modified Boyden chambers (Transwells). The lower chambers contained 10% fetal bovine serum in DMEM to serve as a chemo-attractant. Cells were incubated at 37° C. and allowed to migrate throughout the course of 16 hours. Noninvasive cells were removed from the upper surface of the membrane by scrubbing with cotton swabs. Chambers were stained in 0.5% crystal violet diluted in 100% methanol for 30-60 min, rinsed in water and examined under a bright-field microscope. Values for invasion and migration were obtained by counting five fields per membrane (20× objective) and represent the average of three independent experiments."}, "ATP5F1C": {"target": "T1, ATP5F1C (Homo sapiens, UniProt P05496+P36542)", "T1 construct": "Western blot analysis of MDA-MB-231 2D cell monolayers treated with Bedaquiline; endogenous in cells; host or cells: MDA-MB-231 (ATCC)", "assay": "Western blot of ATP5F1C protein expression in MDA-MB-231 2D monolayers", "format": "cell-based", "conditions": "0.1, 1 and 10 μM, especially 10 μM, 24-120 hours, relative to DMSO", "experimental": "The binding of Bedaquiline to ATP5F1C in situ induces degradation of the protein. […] The effect was both time- and concentration-dependent.\n(§1) Western Blotting: Cells were lysed in RIPA buffer (Sigma Aldrich, Inc.) containing one tablet of Complete TM inhibitor mix (Roche Applied Science, Indianapolis) and one tablet of PhosSTOP™ […] per 10 mL of buffer and loaded onto SDS-polyacrylamide gels. The gels were transferred to 0.2 μm nitrocellulose membranes, using the Trans-Blot Turbo Transfer System (Bio-Rad, Inc.) Membranes were incubated with the respective primary antibodies diluted in Tris-buffered saline, 0.1% Tween 20 (Sigma Aldrich, Inc.) and 5% Bovine Serum Albumin (BSA; Sigma Aldrich Inc.) (TBST), and incubated overnight at 4° C. Then, the blots were washed and incubated with appropriate secondary antibodies and detected using Super Signal West Pico Chemiluminescent Substrate (Thermo Scientific, Inc.), using the G-Box (Syngene, Inc). Antibodies and their dilutions used for Western blot analysis were as follows: mouse anti-ATP5F1C 1:500, mouse anti-β-actin 1:10,000, rabbit anti-PARP 1:1,000, rabbit anti-p21 1:1,000. The resulting immune-blot images were acquired using GeneSys Software (Syngene, Inc.)."}, "MDA-MB-231 cells [3]": {"tested_on": "MDA-MB-231 cells", "assay": "Cell cycle analysis by FACS", "format": "cell-based, human", "experimental": "FIGS. 10A-10C show cell cycle populations for MDA-MB-231 cells treated with Bedaquiline (1 and 10 μM) or vehicle alone, after 48, 72 and 120 hours, respectively. Cell cycle analysis was performed using FACS. […] However, at 72 and 120 hours, a decrease in the S-phase population and a concomitant increase in the sub-G0-G1 population can be seen in FIGS. 10B and 10C. Two-way ANOVA, Sidak's multiple comparisons test, ns=not significant, *p<0.01, **p<0.001, ***p<0.0005.\nCell Cycle Analysis by FACS: Cell-cycle analysis was performed on the ATP-high and ATP-low cell sub-populations, by FACS analysis using the Attune N×T Flow Cytometer. Briefly, after trypsinization, the re-suspended cells were incubated with propidium iodide, as per the manufacturer's recommendations (Merck Millipore, Inc.). At least 25,000 events were analyzed per condition. Gated cells were categorized into cell-cycle stages."}, "p21": {"tested_on": "p21", "assay": "Western blot of p21 protein expression", "format": "cell-based, human", "conditions": "MDA-MB; 0.1, 1 and 10 μM; 120 hours", "experimental": "(§2) Beta-actin was used as a control for equal loading.\nas §1"}, "MDA-MB-231 cells [4]": {"tested_on": "MDA-MB-231 cells", "assay": "3D anchorage independent growth (mammosphere formation) assay", "format": "cell-based, human", "experimental": "3D Anchorage Independent Growth Assay: This assay is also referred to as the mammosphere formation assay. A single-cell suspension was prepared using enzymatic, and manual disaggregation (25-g needle). Then, cells were plated at a density of 500 cells/cm^2 in mammosphere medium (DMEM-F12+1X B-27 Plus Supplement+20 ng/ml EGF+Pen/Strep) under non-adherent conditions, in culture dishes pre-coated with (2-hydroxyethylmethacrylate) (poly-HEMA, Sigma Aldrich Inc.), called “mammosphere plates.” Cells were grown for 5 days and maintained in a humidified incubator at 37° C. After 5 days of culture, 3D-mammospheres >50 μm were counted using an eye piece (“graticule”), and the percentage of cells plated which formed spheres was calculated and is referred to as percent mammosphere formation, and was normalized to one (1=100% MFE). 3D mammosphere formation efficiency (MFE) was analyzed in both the ATP-low and ATP-high sub-populations of cells. All 3D mammosphere experiments were performed in triplicate, at least 3 times independently."}, "chick embryos": {"tested_on": "chick embryos", "assay": "CAM assay: embryo toxicity", "parameters": "species or system chicken (White Leghorn)", "conditions": "all concentrations tested in vivo; daily for 8 days", "experimental": "Next, to test in vivo activity, the well-established CAM assay was used with MDA-MB-231 cells, to measure the effect of Bedaquiline effects on tumor growth, spontaneous metastasis and embryo toxicity. FIG. 11A illustrates the timeline for the CAM assay. An inoculum of 1×10^6 MDA-MB-231 cells was added onto the CAM of each egg (day E9) and then eggs were randomized into groups. On day E10, tumors were detectable and they were then treated daily for 8 days with vehicle alone (1% DMSO in PBS) or Bedaquiline. After 8 days of drug administration, on day E18, all tumors were weighed, and the lower CAM was collected to evaluate the number of metastatic cells, as analyzed by qPCR with specific primers for Human Alu sequences. Before each drug administration, treatment tolerability was evaluated by scoring the number of live and dead chicken embryos.\nTumor Growth, Metastasis and Embryo Toxicity Assays: Xenograft assays were carried out by INOVOTION (Société: 811310127), La Tronche-France. […] For tumor growth assays, at least 14 tumor samples were collected and analysed per group (N≥14). […] Genomic DNA was extracted from the CAM (commercial kit) and analyzed by qPCR with specific primers for Human Alu sequences. […] Before each administration, the treatment tolerability was evaluated by scoring the number of live and dead embryos."}, "[5]": {"tested_on": "mitochondrial ATP production in MDA-MB-231 cells", "assay": "ATP assay using BioTracker ATP-Red 1 (flow cytometry)", "format": "cell-based, human", "experimental": "FIG. 7 compares the fold-change of BioTracker ATP-Red (signal mean) between the control and MDA-MB-231 cells treated with Bedaquiline. […] The data in FIG. 7 based on two-way ANOVA, Sidak's multiple comparisons test, *p<0.05, ** p<0.005, ***p<0.0005, ****p<0.0001.\nATP assay using BioTracker ATP-Red 1: Cells were stained with BioTracker ATP-Red 1 after various treatments. After 30 minutes of incubation, the cells were washed twice with DPBS, collected and dissociated into a single-cell suspension with a 40 μm cell strainer. The cells were analyzed using the Attune N×T Flow Cytometer. Means of the signal (at 570 nm) were compared."}, "MDA-MB-231 cells [6]": {"tested_on": "MDA-MB-231 cells", "assay": "2D monolayer growth, MDA-MB-231", "format": "cell-based, human", "conditions": "10 μM, time-dependent"}, "MCF10A cells": {"tested_on": "MCF10A cells", "assay": "2D monolayer growth, MCF10A", "conditions": "MCF10A normal control mammary epithelial cells; 10 μM"}, "PARP": {"tested_on": "PARP", "assay": "Western blot of PARP protein expression", "format": "cell-based, human", "conditions": "MDA-MB; 0.1, 1 and 10 μM; 120 hours", "experimental": "as §2, §1"}, "MDA-MB-231 cells [7]": {"tested_on": "MDA-MB-231 cells", "assay": "CAM assay: tumor growth and spontaneous metastasis of MDA-MB-231 xenografts", "format": "in vivo, chicken embryo (White Leghorn eggs)"}},
  "data": [
    {"smiles": "COc1nc2ccc(Br)cc2cc1[C@@H](c1ccccc1)[C@@](O)(CCN(C)C)c1cccc2ccccc12", "note": "[Bedaquiline, (1R,2S)-1-(6-bromo-2-methoxyquinolin-3-yl)-4-(dimethylamino)-2-naphthalen-1-yl-1-phenylbutan-2-ol]", "values": [
      {"measurement": "apoptotic cell population (early or late)", "setting": "MDA-MB-231 cells [1]; 72 and 120 hours", "value": "no increase"},
      {"measurement": "dead cell population", "setting": "MDA-MB-231 cells [1]; 72 and 120 hours", "value": "increase"},
      {"measurement": "live cell population", "setting": "MDA-MB-231 cells [1]; 72 and 120 hours", "value": "decrease"},
      {"measurement": "live/dead cell populations", "setting": "MDA-MB-231 cells [1]; 48 hours", "value": "No effects were detectable"},
      {"measurement": "block of cell migration", "setting": "MDA-MB-231 cells [2]", "value": "~ 50%"},
      {"measurement": "levels of ATP5F1C protein expression", "setting": "ATP5F1C", "value": "reduced in a sustained way"},
      {"measurement": "S-phase population", "setting": "MDA-MB-231 cells [3]; 1 and 10 μM, 72 and 120 hours", "value": "decrease"},
      {"measurement": "sub-G0-G1 population", "setting": "MDA-MB-231 cells [3]; 1 and 10 μM, 72 and 120 hours", "value": "increase"},
      {"measurement": "cell cycle populations", "setting": "MDA-MB-231 cells [3]; 1 and 10 μM, 48 hours", "value": "No effects were detectable"},
      {"measurement": "increase in the sub-G0-G1 population", "setting": "MDA-MB-231 cells [3]; after 120 hours of treatment", "value": 2, "unit": "fold"},
      {"measurement": "reduction of cells in S-phase", "setting": "MDA-MB-231 cells [3]; after 120 hours of treatment", "value": 2, "unit": "fold"},
      {"measurement": "p21 protein expression", "setting": "p21", "value": "decreased in a concentration-dependent manner"},
      {"measurement": "block of 3D mammosphere formation", "setting": "MDA-MB-231 cells [4]; MDA-MB-231, 10 μM", "value": "~ 65%"},
      {"measurement": "toxicity for chick embryos (egg survival)", "setting": "chick embryos", "value": "not toxic"},
      {"measurement": "inhibition at 10 µM", "setting": "[5]; Homo sapiens, MDA-MB-231, 10 μM, 120 hours of treatment, read-out: maximal inhibition of mitochondrial ATP production", "value": 75, "unit": "%"},
      {"measurement": "2D monolayer growth", "setting": "MDA-MB-231 cells [6]", "value": "effectively inhibits 2D growth"},
      {"measurement": "2D monolayer growth", "setting": "MCF10A cells", "value": "No effect"},
      {"measurement": "PARP protein expression", "setting": "PARP", "value": "decreased in a concentration-dependent manner"},
      {"measurement": "inhibition of spontaneous metastasis", "setting": "MDA-MB-231 cells [7]; CAM, 120 μM treatment, daily for 8 days, qPCR Human Alu, vs control", "value": 84, "unit": "%"},
      {"measurement": "tumor growth (average tumor weight)", "setting": "MDA-MB-231 cells [7]; CAM, treated daily for 8 days, day E18", "value": "no statistically significant effect"}
    ]},
    {"smiles": "CCCCCCCCCCCCCC(=O)OCCCCc1ccc2nc(OC)c([C@@H](c3ccccc3)[C@@](O)(CCN(C)C)c3cccc4ccccc34)cc2c1", "note": "[structure [4B]]", "values": [
      {"measurement": "potency relative to unconjugated Bedaquiline, inhibiting mammosphere formation", "setting": "MDA-MB-231 cells [4]; initial/early assessment", "value": "2-5 fold"},
      {"measurement": "potency relative to unconjugated Bedaquiline, inducing ATP-depletion", "setting": "[5]; initial/early assessment", "value": "2-5 fold"},
      {"measurement": "potency relative to unconjugated Bedaquiline, inhibiting spontaneous metastasis", "setting": "MDA-MB-231 cells [7]; initial/early assessment, CAM assay", "value": "2-5 fold"}
    ]}
  ]
}
